Results published in PubChem BioAssay (NCI).
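1) Cells in 96-well plates. 2) Compound, 48 h, 5 concentrations. 3) Linear interpolation between surrounding doses. 4) Unreached endpoint = highest concentration. At the GI50, growth is halved. Definition used: TGI = concentration required for complete inhibition of growth.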

Key:
Experiment in all cases: NCI anticancer screen, dose series, 48 h
NCI-H23 lung = system: NCI-H23 lung
TK-10 renal = system: TK-10 renal
CAKI-1 renal = system: CAKI-1 renal
MALME-3M melanoma = system: MALME-3M melanoma
SK-OV-3 ovarian = system: SK-OV-3 ovarian
MOLT-4 leukemia = system: MOLT-4 leukemia
SNB-19 CNS = system: SNB-19 CNS
BT-549 breast = system: BT-549 breast
DU-145 prostate = system: DU-145 prostate
KM12 colon = system: KM12 colon
PC-3 prostate = system: PC-3 prostate
A498 renal = system: A498 renal
M14 melanoma = system: M14 melanoma
IGROV1 ovarian = system: IGROV1 ovarian
HT29 colon = system: HT29 colon
SR leukemia = system: SR leukemia
NCI-H460 lung = system: NCI-H460 lung
786-0 renal = system: 786-0 renal
COLO 205 colon = system: COLO 205 colon
RXF 393 renal = system: RXF 393 renal
SW-620 colon = system: SW-620 colon
RPMI-8226 leukemia = system: RPMI-8226 leukemia
HOP-92 NSCLC = system: HOP-92 NSCLC
HS 578T breast = system: HS 578T breast
SN12C renal = system: SN12C renal
HCT-116 colon = system: HCT-116 colon
UO-31 renal = system: UO-31 renal
OVCAR-8 ovarian = system: OVCAR-8 ovarian
SF-539 CNS = system: SF-539 CNS
MDA-MB-435 = system: MDA-MB-435
SK-MEL-2 melanoma = system: SK-MEL-2 melanoma
LOX IMVI melanoma = system: LOX IMVI melanoma
MDA-MB-231 breast = system: MDA-MB-231 breast
NCI-H522 lung = system: NCI-H522 lung
A549 NSCLC = system: A549 NSCLC
SF-295 CNS = system: SF-295 CNS
EKVX NSCLC = system: EKVX NSCLC
ACHN renal = system: ACHN renal
MCF7 breast = system: MCF7 breast
HL-60(TB) leukemia = system: HL-60(TB) leukemia
SK-MEL-5 melanoma = system: SK-MEL-5 melanoma
HCT-15 colon = system: HCT-15 colon
CCRF-CEM leukemia = system: CCRF-CEM leukemia
SF-268 CNS = system: SF-268 CNS
UACC-257 melanoma = system: UACC-257 melanoma
OVCAR-4 ovarian = system: OVCAR-4 ovarian
NCI-H226 lung = system: NCI-H226 lung
HOP-62 NSCLC = system: HOP-62 NSCLC
OVCAR-3 ovarian = system: OVCAR-3 ovarian
HCC-2998 colon = system: HCC-2998 colon
K-562 leukemia = system: K-562 leukemia
SK-MEL-28 melanoma = system: SK-MEL-28 melanoma
OVCAR-5 ovarian = system: OVCAR-5 ovarian
T-47D breast = system: T-47D breast
U251 CNS = system: U251 CNS
UACC-62 melanoma = system: UACC-62 melanoma
NCI/ADR-RES ovarian = system: NCI/ADR-RES ovarian
SNB-75 CNS = system: SNB-75 CNS

CC(C)CCSC1=CC(=O)c2ccccc2C1=O
GI50 (NCI-H23 lung): 14.5 µM
TGI (NCI-H23 lung): 34.7 µM
GI50 (TK-10 renal): 12.4 µM
TGI (TK-10 renal): 24.8 µM
GI50 (CAKI-1 renal): 10.3 µM
TGI (CAKI-1 renal): 21.9 µM
GI50 (MALME-3M melanoma): 1.57 µM
TGI (MALME-3M melanoma): 4.24 µM
GI50 (SK-OV-3 ovarian): 26.1 µM
TGI (SK-OV-3 ovarian): > 81.2 µM
GI50 (MOLT-4 leukemia): 0.228 µM
TGI (MOLT-4 leukemia): 0.611 µM
GI50 (SNB-19 CNS): 30 µM
TGI (SNB-19 CNS): > 100 µM
GI50 (BT-549 breast): 1.33 µM
TGI (BT-549 breast): 21.3 µM
GI50 (DU-145 prostate): 12.1 µM
TGI (DU-145 prostate): 25.8 µM
GI50 (KM12 colon): 7.36 µM
TGI (KM12 colon): 21.5 µM
GI50 (PC-3 prostate): 1.96 µM
TGI (PC-3 prostate): 6.85 µM
GI50 (A498 renal): 19.8 µM
TGI (A498 renal): 63.9 µM
GI50 (M14 melanoma): 15.6 µM
TGI (M14 melanoma): 33.4 µM
GI50 (IGROV1 ovarian): 1.06 µM
TGI (IGROV1 ovarian): 5 µM
GI50 (HT29 colon): 23.7 µM
TGI (HT29 colon): 53.7 µM
GI50 (SR leukemia): 0.0506 µM
TGI (SR leukemia): 0.616 µM
GI50 (NCI-H460 lung): 16.7 µM
TGI (NCI-H460 lung): 42.9 µM
GI50 (786-0 renal): 19.8 µM
TGI (786-0 renal): 34.4 µM
GI50 (COLO 205 colon): 10.9 µM
TGI (COLO 205 colon): 22.9 µM
GI50 (RXF 393 renal): 5.06 µM
TGI (RXF 393 renal): 16.3 µM
GI50 (SW-620 colon): 2.59 µM
TGI (SW-620 colon): 8.91 µM
GI50 (RPMI-8226 leukemia): 0.0469 µM
TGI (RPMI-8226 leukemia): 0.304 µM
GI50 (HOP-92 NSCLC): 1.2 µM
TGI (HOP-92 NSCLC): 2.62 µM
GI50 (HS 578T breast): 5.5 µM
TGI (HS 578T breast): 30.7 µM
GI50 (SN12C renal): 12.9 µM
TGI (SN12C renal): 25.8 µM
GI50 (HCT-116 colon): 1.42 µM
TGI (HCT-116 colon): 2.89 µM
GI50 (UO-31 renal): 0.627 µM
TGI (UO-31 renal): 4.18 µM
GI50 (OVCAR-8 ovarian): 4.56 µM
TGI (OVCAR-8 ovarian): 17.3 µM
GI50 (SF-539 CNS): 5.74 µM
TGI (SF-539 CNS): 22.7 µM
GI50 (MDA-MB-435): 3.88 µM
TGI (MDA-MB-435): 13.8 µM
GI50 (SK-MEL-2 melanoma): 6.73 µM
TGI (SK-MEL-2 melanoma): 17.3 µM
GI50 (LOX IMVI melanoma): 3.56 µM
TGI (LOX IMVI melanoma): 15.6 µM
GI50 (MDA-MB-231 breast): 1.36 µM
TGI (MDA-MB-231 breast): 3.5 µM
GI50 (NCI-H522 lung): 1.6 µM
TGI (NCI-H522 lung): 6.38 µM
GI50 (A549 NSCLC): 32.6 µM
TGI (A549 NSCLC): > 82.8 µM
GI50 (SF-295 CNS): 14.7 µM
TGI (SF-295 CNS): 42.2 µM
GI50 (EKVX NSCLC): 4.5 µM
TGI (EKVX NSCLC): 16.6 µM
GI50 (ACHN renal): 1.84 µM
TGI (ACHN renal): 5.69 µM
GI50 (MCF7 breast): 1.42 µM
TGI (MCF7 breast): 3.63 µM
GI50 (HL-60(TB) leukemia): 0.325 µM
TGI (HL-60(TB) leukemia): 0.943 µM
GI50 (SK-MEL-5 melanoma): 0.723 µM
TGI (SK-MEL-5 melanoma): 20.1 µM
GI50 (HCT-15 colon): 6.61 µM
TGI (HCT-15 colon): 19.1 µM
GI50 (CCRF-CEM leukemia): 0.215 µM
TGI (CCRF-CEM leukemia): 0.62 µM
GI50 (SF-268 CNS): 6.66 µM
TGI (SF-268 CNS): 23.8 µM
GI50 (UACC-257 melanoma): 13.3 µM
TGI (UACC-257 melanoma): 26.7 µM
GI50 (OVCAR-4 ovarian): 1.57 µM
TGI (OVCAR-4 ovarian): 3.05 µM
GI50 (NCI-H226 lung): 6.82 µM
TGI (NCI-H226 lung): 32.8 µM
GI50 (HOP-62 NSCLC): 23.5 µM
TGI (HOP-62 NSCLC): > 59.1 µM
GI50 (OVCAR-3 ovarian): 1.17 µM
TGI (OVCAR-3 ovarian): 2.39 µM
GI50 (HCC-2998 colon): 21.5 µM
TGI (HCC-2998 colon): 45.7 µM
GI50 (K-562 leukemia): 0.313 µM
TGI (K-562 leukemia): 1.2 µM
GI50 (SK-MEL-28 melanoma): 5.7 µM
TGI (SK-MEL-28 melanoma): 10.7 µM
GI50 (OVCAR-5 ovarian): 18.1 µM
TGI (OVCAR-5 ovarian): 34 µM
GI50 (T-47D breast): 1.19 µM
TGI (T-47D breast): 3.51 µM
GI50 (U251 CNS): 8.11 µM
TGI (U251 CNS): 21.5 µM
GI50 (UACC-62 melanoma): 4.02 µM
TGI (UACC-62 melanoma): 14.8 µM
GI50 (NCI/ADR-RES ovarian): 8.75 µM
TGI (NCI/ADR-RES ovarian): 40.1 µM
GI50 (SNB-75 CNS): 0.811 µM
TGI (SNB-75 CNS): > 46.9 µM

COc1ccc2c(c1)CCN=C2Cc1ccccc1CCCl
TGI (NCI-H23 lung): 81.8 µM
TGI (TK-10 renal): > 100 µM
TGI (CAKI-1 renal): 63.2 µM
TGI (SK-OV-3 ovarian): > 100 µM
TGI (MOLT-4 leukemia): > 100 µM
TGI (SNB-19 CNS): > 100 µM
TGI (BT-549 breast): > 100 µM
TGI (DU-145 prostate): > 100 µM
TGI (KM12 colon): 74.6 µM
TGI (PC-3 prostate): > 100 µM
TGI (A498 renal): > 100 µM
TGI (M14 melanoma): 46.1 µM
TGI (IGROV1 ovarian): > 100 µM
TGI (HT29 colon): 55 µM
TGI (SR leukemia): > 100 µM
TGI (NCI-H460 lung): 38.8 µM
TGI (786-0 renal): > 100 µM
TGI (COLO 205 colon): 40 µM
TGI (RXF 393 renal): 71.7 µM
TGI (SW-620 colon): > 100 µM
TGI (RPMI-8226 leukemia): 46.7 µM
TGI (HOP-92 NSCLC): > 100 µM
TGI (HS 578T breast): > 100 µM
TGI (SN12C renal): 72.5 µM
TGI (HCT-116 colon): > 100 µM
TGI (UO-31 renal): 43.9 µM
TGI (OVCAR-8 ovarian): 67.9 µM
TGI (SF-539 CNS): 45.8 µM
TGI (MDA-MB-435): 45.4 µM
TGI (SK-MEL-2 melanoma): 58.3 µM
TGI (MDA-MB-231 breast): 44.1 µM
TGI (NCI-H522 lung): 58.4 µM
TGI (A549 NSCLC): > 100 µM
TGI (SF-295 CNS): > 100 µM
TGI (EKVX NSCLC): > 100 µM
TGI (ACHN renal): 79.2 µM
TGI (MCF7 breast): > 100 µM
TGI (HL-60(TB) leukemia): 48.6 µM
TGI (SK-MEL-5 melanoma): 36.6 µM
TGI (HCT-15 colon): > 100 µM
TGI (CCRF-CEM leukemia): > 100 µM
TGI (SF-268 CNS): > 100 µM
TGI (UACC-257 melanoma): 88.9 µM
TGI (OVCAR-4 ovarian): > 100 µM
TGI (NCI-H226 lung): 83.5 µM
TGI (HOP-62 NSCLC): > 100 µM
TGI (OVCAR-3 ovarian): > 100 µM
TGI (HCC-2998 colon): 42.1 µM
TGI (K-562 leukemia): > 100 µM
TGI (SK-MEL-28 melanoma): > 100 µM
TGI (OVCAR-5 ovarian): > 100 µM
TGI (T-47D breast): > 100 µM
TGI (U251 CNS): > 100 µM
TGI (UACC-62 melanoma): 52.7 µM
TGI (NCI/ADR-RES ovarian): 64.9 µM
TGI (SNB-75 CNS): > 100 µM
